According to paper PMC2120320 (The Journal of Cell Biology, 1994):

Key:
[1] = test system: dynein-driven microtubule sliding in pf17 axonemes; experiment: Microtubule sliding velocity in isolated pf17 axonemes; assay type: biochemical, Chlamydomonas reinhardtii
[2] = test system: dynein-driven microtubule sliding in wild-type 137c axonemes; experiment: Microtubule sliding velocity in wild-type; assay type: biochemical, Chlamydomonas reinhardtii
[3] = test system: dynein-driven microtubule sliding in pf14pf28 axonemes; experiment: Microtubule sliding velocity in pf14pf28 axonemes; assay type: biochemical, Chlamydomonas reinhardtii
[4] = test system: dynein-driven microtubule sliding in pf18 axonemes; experiment: Microtubule sliding velocity in pf18 axonemes; assay type: biochemical, Chlamydomonas reinhardtii; conditions: pf18, 100 nM PKI; Habermacher, G., unpublished results
[5] = test system: dynein-driven microtubule sliding in spoke-deficient axonemes; experiment: Microtubule sliding velocity in spoke-deficient axonemes; assay type: biochemical, Chlamydomonas reinhardtii; conditions: for effect on velocity of microtubule sliding: spoke-deficient mutants (pf14, pf17)
[6] = test system: inner arm dyneins; assay type: biochemical, Chlamydomonas reinhardtii
[7] = test system: pf17 axonemes; experiment: In vitro reactivation of beating of pf17 axonemes; assay type: biochemical, Chlamydomonas reinhardtii; conditions: pf17 axonemes with PKI, preliminary experiments
[8] = target: cAMP-dependent protein kinase (cAPK); conditions: ref Glass et al., cited from earlier work
[9] = target: cyclic nucleotide-dependent kinases; conditions: inhibition of cyclic nucleotide-dependent kinases; ref Hidaka et al., 1984; cited from earlier work
[10] = target: protein kinase C; conditions: ref Hidaka et al., 1984; cited from earlier work
[11] = target: myosin light chain kinase; conditions: ref Hidaka et al., 1984; cited from earlier work
[12] = test system: dynein-driven microtubule sliding in pf14 axonemes; experiment: Microtubule sliding velocity in isolated pf14 axonemes; assay type: biochemical, Chlamydomonas reinhardtii; conditions: pf14, 10 μM cAMP alone (Fig. 4), mean from 20 measurements
[13] = target: PKI-sensitive kinase activity; conditions: demembranated ram sperm, treatment with cAMP; ref San Agustin and Witman, 1994; cited from earlier work
[14] = test system: catalytic subunit of cAPK; conditions: demembranated rat sperm; ref Horowitz et al., 1984; cited from earlier work

Thr-Tyr-Ala-Asp-Phe-Ile-Ala- Ser-Gly-Arg-Thr-Gly-A_rg-Arg-Aan-Ala-Ile-NH2 [PKI, PKI(6-22)amide]
efficacy of PKI versus NAcPKI ([1]; pf17, 100 nM (Fig. 2a)): no detectable difference | effect on microtubule sliding velocity ([1]; pf17, 100 nM peptide (Fig. 2a), PKI and NAcPKI P < 0.01 vs control or triAlaPKI): significantly increased | effect on microtubule sliding velocity ([2]; wild-type 137c, 0-200 nM PKI (Fig. 2b)): did not affect | effect on microtubule sliding velocity ([3]; pf14pf28, 100 nM PKI (Fig. 5), P < 0.001): significantly increased | effect on microtubule sliding vs pf28 control velocity ([3]; pf14pf28, PKI): increased microtubule sliding to control (pf28) velocity | effect on velocity of microtubule sliding [4]: significantly increased to wild-type levels | dose dependence of sliding velocity stimulation ([5]; spoke-deficient axonemes): dose-dependent | effect on velocity of microtubule sliding [5]: increased to wild-type level | sliding velocity with control dynein on extracted PKI-treated axonemes (PKIAxos) ([6]; pf14pf28, 100 nM PKI (Fig. 6), two experiments pooled): only slow | sliding velocity of PKI-treated axonemes before extraction vs control axonemes ([6]; pf14pf28, 100 nM PKI, Pre-Extr (Fig. 6), P < 0.05): significantly greater | reactivation of in vitro beating [7]: unable to reactivate | Ki ([8]; inhibition of cAPK, 1989): 1.6 to 2.5 nM | specificity of cAPK inhibition [8]; 1986: high degree of specificity

Cl.N=C(N)NCCNS(=O)(=O)c1cccc2cnccc12 [HA-1004, N-(2-guanidinoethyl)-5-isoquinolinesulfonamide hydrochloride]
effect on microtubule sliding velocity ([2]; wild-type, 15 μM HA-1004, not shown): had no effect | dose dependence of sliding velocity stimulation ([5]; spoke-deficient axonemes): dose dependent | effect on velocity of microtubule sliding [5]: increased to wild-type level | Ki [9]: 1000 to 3000 nM | Ki [10]: 40 µM | Ki [11]: 150 µM

RII: regulatory subunit of bovine cardiac type II cAPK (Promega)
effect of RII on microtubule sliding ([5]; spoke-deficient axonemes, type-II regulatory subunit of cAPK): increased microtubule sliding to wild-type velocity

CC1CNCCN1S(=O)(=O)c1cccc2cnccc12 (centres unmarked) [H-7]
effect on sliding velocity ([5]; H-7, spoke-deficient axonemes, data not shown): increases | effect on velocity of microtubule sliding [5]: increased to wild-type level

Nc1ncnc2c1ncn2[C@@H]1O[C@@H]2COP(=O)(O)O[C@H]2[C@H]1O [cAMP]
effect on microtubule sliding velocity [12]: had no effect | effect on RII-induced increase in sliding ([5]; 10 μM cAMP added to spokeless axonemes reconstituted with RII): reversed the effect of RII | PKI-sensitive kinase activity remaining bound after cAMP [13]: ≤ 50% | release of catalytic activity [14]: releases most of the catalytic activity
